According to patent US11826351B2, “Compounds useful as kinase inhibitors” (Loxo Oncology, Inc., priority 2015, dated 2023):
Blank lines part the entries; values can stand above or below the compound they belong to.

Experiments:
[1] = target: T1, Recombinant BTK^C481S kinase (Homo sapiens, UniProt Q06187, C481S); test: BTK C481S binding affinity (LanthaScreen TR-FRET); conditions: Kinase Tracer 236, 5 h incubation
T1 construct: purchased SignalChem
In short: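 BTK C481S tracer-displacement TR-FRET: 5 nM His-tagged kinase, 2 nM Eu anti-His antibody and 30 nM Kinase Tracer 236 incubated with titrated inhibitor for 5 h in Kinase Buffer A. Read at 340 nm excitation, 615/665 nm emission; IC50 from variable-slope log[inhibitor]–response fit.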

[2] = target: T2, Recombinant BTK^WT kinase (Homo sapiens, UniProt Q06187); test: BTK WT binding affinity (LanthaScreen TR-FRET); conditions: Kinase Tracer 236, 5 h incubation
T2 construct: purchased Invitrogen
T2 sequence (Q06187 whole entry): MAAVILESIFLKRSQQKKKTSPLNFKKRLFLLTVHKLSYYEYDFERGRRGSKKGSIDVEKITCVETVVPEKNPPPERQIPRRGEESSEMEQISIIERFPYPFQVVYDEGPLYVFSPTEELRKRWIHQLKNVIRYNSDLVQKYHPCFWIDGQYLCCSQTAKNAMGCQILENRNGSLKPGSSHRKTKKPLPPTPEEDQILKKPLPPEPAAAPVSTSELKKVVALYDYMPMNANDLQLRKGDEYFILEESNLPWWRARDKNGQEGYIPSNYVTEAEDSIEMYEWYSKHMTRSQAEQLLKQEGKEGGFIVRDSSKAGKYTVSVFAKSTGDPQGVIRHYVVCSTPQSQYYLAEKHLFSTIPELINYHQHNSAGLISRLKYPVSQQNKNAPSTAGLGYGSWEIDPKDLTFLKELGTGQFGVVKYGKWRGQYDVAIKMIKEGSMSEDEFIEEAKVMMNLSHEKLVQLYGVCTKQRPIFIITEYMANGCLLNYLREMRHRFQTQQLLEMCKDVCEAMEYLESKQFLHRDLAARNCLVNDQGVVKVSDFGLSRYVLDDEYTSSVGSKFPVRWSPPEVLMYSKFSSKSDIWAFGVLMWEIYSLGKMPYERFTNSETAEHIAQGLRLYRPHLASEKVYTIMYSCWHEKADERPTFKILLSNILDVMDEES
In short: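 Tracer-displacement TR-FRET: 2.5 nM recombinant BTK^WT, 2 nM Eu anti-His antibody and 15 nM Kinase Tracer 236 incubated with varying inhibitor concentrations for 5 h in Kinase Buffer A. Signal read at 340 nm excitation, 615/665 nm emission; IC50 from variable-slope log[inhibitor]–response fit.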

[3] = target: T3, Recombinant EGFR (Homo sapiens, UniProt P00533); test: EGFR binding affinity (LanthaScreen TR-FRET); conditions: Kinase Tracer 199, 5 h incubation
T3 construct: purchased Invitrogen
T3 sequence (P00533 25-1210): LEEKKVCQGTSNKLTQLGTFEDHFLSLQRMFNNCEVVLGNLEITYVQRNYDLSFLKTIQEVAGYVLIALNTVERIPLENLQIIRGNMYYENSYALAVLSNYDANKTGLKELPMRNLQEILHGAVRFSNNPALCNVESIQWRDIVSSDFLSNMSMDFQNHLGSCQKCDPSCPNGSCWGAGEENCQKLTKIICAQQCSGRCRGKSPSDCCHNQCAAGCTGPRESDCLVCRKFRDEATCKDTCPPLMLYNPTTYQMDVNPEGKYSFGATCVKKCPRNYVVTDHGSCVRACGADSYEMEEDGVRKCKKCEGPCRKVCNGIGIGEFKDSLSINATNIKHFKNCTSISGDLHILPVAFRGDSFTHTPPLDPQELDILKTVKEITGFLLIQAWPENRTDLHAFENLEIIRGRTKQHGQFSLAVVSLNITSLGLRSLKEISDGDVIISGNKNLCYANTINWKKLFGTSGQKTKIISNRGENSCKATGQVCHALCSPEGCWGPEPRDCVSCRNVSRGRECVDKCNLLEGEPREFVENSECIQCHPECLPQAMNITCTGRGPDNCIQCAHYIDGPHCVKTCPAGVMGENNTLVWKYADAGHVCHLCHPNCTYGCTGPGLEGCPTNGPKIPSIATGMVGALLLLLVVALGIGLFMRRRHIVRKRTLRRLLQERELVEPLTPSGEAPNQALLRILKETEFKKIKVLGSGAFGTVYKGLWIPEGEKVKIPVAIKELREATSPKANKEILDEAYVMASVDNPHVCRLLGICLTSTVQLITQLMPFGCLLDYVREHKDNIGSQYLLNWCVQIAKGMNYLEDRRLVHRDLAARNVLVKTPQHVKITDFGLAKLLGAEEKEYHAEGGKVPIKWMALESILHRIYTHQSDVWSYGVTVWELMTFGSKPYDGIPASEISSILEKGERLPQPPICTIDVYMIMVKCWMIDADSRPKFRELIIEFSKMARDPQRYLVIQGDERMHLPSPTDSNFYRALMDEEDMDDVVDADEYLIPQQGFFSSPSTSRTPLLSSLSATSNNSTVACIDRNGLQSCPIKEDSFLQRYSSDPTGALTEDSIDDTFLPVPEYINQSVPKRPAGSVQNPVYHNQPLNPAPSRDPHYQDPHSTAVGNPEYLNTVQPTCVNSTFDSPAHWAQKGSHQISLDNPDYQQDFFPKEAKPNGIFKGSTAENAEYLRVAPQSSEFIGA
In short: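 TR-FRET binding (LanthaScreen) with recombinant EGFR; signal measured across a compound concentration range. IC50 obtained by fitting RFU against log[inhibitor] to a variable-slope model.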

[4] = test system: OCI-Ly10 human DLBCL cells; test: OCI-Ly10 anti-proliferative activity (Resazurin); type: cell-based; conditions: Homo sapiens, OCI-Ly10, 72 h, OCI-Ly10 cells, 72 h compound treatment, Resazurin; read-out: Proliferation Assay OCI-Ly10-20% FBS
In short: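 OCI-Ly10 human DLBCL cells, whose growth depends on NFκB signalling, were seeded at 7.5×10^3 cells per well in 96-well plates with a range of compound concentrations and kept at 37° C for 72 h. Resazurin was then added, and after 5 h fluorescence was read at 590 nm.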

T1 sequence (Q06187 whole entry C481S): as the sequence (Q06187 whole entry) above, with C481S counted along it

SMILES: COc1ccccc1C(=O)NCc1cc(-c2nn(C3CCCC3)c(N)c2C(N)=O)ccc1F [Example 118, 5-amino-1-cyclopentyl-3-[4-fluoro-3-[[(2-methoxybenzoyl)amino]methyl]phenyl]pyrazole-4-carboxamide]
IC50 [1]: 0.01 to 0.1 µM
IC50 [2]: 0.1 to 1 µM
IC50 [3]: 1 to 10 µM
IC50 [4]: 1 to 10 µM

SMILES: COc1ccc(F)cc1C(=O)NCc1ccc(-c2nn(CC(F)(F)F)c(N)c2C(N)=O)cc1 [Example 122, 5-amino-3-[4-[[(5-fluoro-2-methoxy-benzoyl)amino]methyl]phenyl]-1-(2,2,2-trifluoroethyl)pyrazole-4-carboxamide]
IC50 [1]: < 0.01 µM
IC50 [2]: < 0.01 µM
IC50 [3]: 1 to 10 µM
IC50 [4]: 0.01 to 0.1 µM

SMILES: COc1ccc(F)cc1C(=O)NCc1ccc(-c2nn(C3CCOCC3)c(N)c2C(N)=O)cc1F [Example 123, 5-amino-3-[3-fluoro-4-[[(5-fluoro-2-methoxy-benzoyl)amino]methyl]phenyl]-1-tetrahydropyran-4-yl-pyrazole-4-carboxamide]
IC50 [1]: < 0.01 µM
IC50 [2]: < 0.01 µM
IC50 [3]: 1 to 10 µM
IC50 [4]: 0.1 to 1 µM

SMILES: COc1ccccc1C(=O)NCc1ccc(-c2nn(CC(F)(F)F)c(N)c2C(N)=O)c(F)c1 [Example 124, 5-amino-3-[2-fluoro-4-[[(2-methoxybenzoyl)amino]methyl]phenyl]-1-(2,2,2-trifluoroethyl)pyrazole-4-carboxamide]
IC50 [1]: 0.01 to 0.1 µM
IC50 [2]: 0.01 to 0.1 µM
IC50 [3]: 1 to 10 µM
IC50 [4]: 0.1 to 1 µM

SMILES: COc1ccc(F)cc1C(=O)NCc1ccc(-c2nn(CC(F)(F)F)c(N)c2C(N)=O)c(F)c1 [Example 125, 5-amino-3-[2-fluoro-4-[[(5-fluoro-2-methoxy-benzoyl)amino]methyl]phenyl]-1-(2,2,2-trifluoroethyl)pyrazole-4-carboxamide]
IC50 [1]: < 0.01 µM
IC50 [2]: 0.01 to 0.1 µM
IC50 [3]: > 10 µM
IC50 [4]: 0.1 to 1 µM

SMILES: COc1ccccc1C(=O)NCc1ccc(-c2nn(C(C)C(F)F)c(N)c2C(N)=O)cc1 (stereo not shown) [Example 126, 5-amino-1-(2,2-difluoro-1-methyl-ethyl)-3-[4-[[(2-methoxybenzoyl)amino]methyl]phenyl]pyrazole-4-carboxamide]
IC50 [1]: < 0.01 µM
IC50 [2]: 0.01 to 0.1 µM
IC50 [3]: 1 to 10 µM
IC50 [4]: 0.1 to 1 µM

Other lines, results leading:

IC50 [1]: < 0.01 µM
IC50 [2]: < 0.01 µM
IC50 [3]: 1 to 10 µM
IC50 [4]: 0.01 to 0.1 µM
SMILES: COc1ccccc1C(=O)NCc1ccc(-c2nn(C3CCCOC3)c(N)c2C(N)=O)cc1F (stereo not shown) [Example 117, 5-amino-3-[3-fluoro-4-[[(2-methoxybenzoyl)amino]methyl]phenyl]-1-tetrahydropyran-3-yl-pyrazole-4-carboxamide]

IC50 [1]: < 0.01 µM
IC50 [2]: < 0.01 µM
IC50 [3]: 1 to 10 µM
IC50 [4]: 0.01 to 0.1 µM
SMILES: COc1ccc(F)cc1C(=O)NCc1ccc(-c2nn(C3CCOC3)c(N)c2C(N)=O)cc1F (stereo not shown) [Example 119, 5-amino-3-[3-fluoro-4-[[(5-fluoro-2-methoxy-benzoyl)amino]methyl]phenyl]-1-tetrahydrofuran-3-yl-pyrazole-4-carboxamide]

IC50 [1]: < 0.01 µM
IC50 [2]: < 0.01 µM
IC50 [3]: 1 to 10 µM
IC50 [4]: 0.01 to 0.1 µM
SMILES: COc1ccc(F)cc1C(=O)NCc1ccc(-c2nn(C(C)C(F)(F)F)c(N)c2C(N)=O)cc1 (stereo not shown) [Example 120, 5-amino-3-[4-[[(5-fluoro-2-methoxy-benzoyl)amino]methyl]phenyl]-1-(2,2,2-trifluoro-1-methyl-ethyl)pyrazole-4-carboxamide]

IC50 [1]: < 0.01 µM
IC50 [2]: < 0.01 µM
IC50 [3]: 0.1 to 1 µM
IC50 [4]: 0.01 to 0.1 µM
SMILES: COc1ccccc1C(=O)NCc1ccc(-c2nn(C(C)C(F)(F)F)c(N)c2C(N)=O)cc1 (stereo not shown) [Example 121, 5-amino-3-[4-[[(2-methoxybenzoyl)amino]methyl]phenyl]-1-(2,2,2-trifluoro-1-methyl-ethyl)pyrazole-4-carboxamide]
